Patent US11266643B2, “Triaryl compounds for treatment of PD-L1 diseases” (CHEMOCENTRYX, INC., priority 2019, dated 2022)

Molecular target: human PD-L1 (Homo sapiens (Human), UniProt Q9NZQ7)
Assay: Enzyme-Linked Immunosorbent Assay (ELISA), PD-1/PD-L1 binding
Conditions: PD-1/PD-L1 ELISA, human PD-L1 coated plates, Table 1
How it was run: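 Plates coated with […] human PD-L1 overnight at 4° C, blocked, then 1:5 serial compound dilutions added with human PD-1 […] 0.31 μg/mL for 1 h at 37° C. Bound PD-1 detected with streptavidin-HRP and TMB (20 min, 37° C); absorbance read at 450 nm after H2SO4 stop.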

human PD-L1, sequence (Q9NZQ7 19-239): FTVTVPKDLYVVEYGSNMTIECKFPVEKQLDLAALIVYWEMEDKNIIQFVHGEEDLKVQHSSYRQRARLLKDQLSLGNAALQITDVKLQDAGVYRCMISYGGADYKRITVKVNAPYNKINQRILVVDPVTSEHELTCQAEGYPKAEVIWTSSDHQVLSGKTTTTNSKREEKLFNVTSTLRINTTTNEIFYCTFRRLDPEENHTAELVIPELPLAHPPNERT

SMILES | IC50 [nM]
COc1cc(-c2cccc(-c3cccc(NC(=O)c4ccccn4)c3C)c2C)cc(F)c1CN1CCC[C@H](C(=O)O)C1 [Example 1.355] | 10 to 1000
COc1cc(-c2cccc(-c3cccc(NC(=O)c4ccccn4)c3C)c2C#N)cc(F)c1CN1CC(C(=O)O)C1 [Example 1.356] | 10 to 1000
COc1cc(-c2cccc(-c3cccc(NC(=O)c4cnccn4)c3C)c2C)cc(F)c1CN1CC(C(=O)O)C1 [Example 1.357] | < 10
COc1cc(-c2cccc(-c3cccc(NC(=O)c4ccccn4)c3C)c2C)cc(F)c1CN1CCC(C(=O)O)CC1 [Example 1.358] | 10 to 1000
COc1cc(-c2cccc(-c3cccc(NC(=O)c4ccc(F)cn4)c3C)c2C)cc(F)c1CN1CC(C(=O)O)C1 [Example 1.359] | 10 to 1000
COc1cc(-c2cccc(-c3cccc(NC(=O)c4ccccn4)c3C)c2C)cc(F)c1CN1CC(C)(C(=O)O)C1 [Example 1.360] | < 10
COc1cc(-c2cccc(-c3cccc(NC(=O)c4ccccn4)c3C)c2C)cc(F)c1CN1CCC2(C1)NC(=O)NC2=O (stereo not drawn) [Example 1.362] | 10 to 1000
COc1cc(-c2cccc(-c3cccc(NC(=O)C4CCCCO4)c3C)c2C)cc(F)c1CN (stereo not drawn) [Example 1.363] | 10 to 1000
COc1cc(-c2cccc(-c3cccc(NC(=O)c4ncc(C)cn4)c3C)c2C)cc(F)c1CN1CC(C(=O)O)C1 [Example 1.364] | 10 to 1000
COc1cc(-c2cccc(-c3cccc(NC(=O)c4ccccn4)c3C)c2Cl)cc(F)c1CN1CC(C(=O)O)C1 [Example 1.365] | < 10
COc1cc(-c2cccc(-c3cccc(NC(=O)c4ccccn4)c3C)c2C)cc(F)c1CN1CC[C@@H](C(=O)O)C1 [Example 1.366] | < 10
COc1cc(-c2cccc(-c3cccc(NC(=O)c4ccncn4)c3C)c2C)cc(F)c1CN1CC(C(=O)O)C1 [Example 1.367] | < 10
COc1cc(-c2cccc(-c3cccc(NC(=O)c4ccccn4)c3C)c2C)cc(F)c1CN1CC[C@H](C(=O)O)C1 [Example 1.368] | 10 to 1000
COc1cc(-c2cccc(-c3cccc(NC(=O)c4ccc(Cl)cn4)c3C)c2C)cc(F)c1CN1CC(C(=O)O)C1 [Example 1.369] | 10 to 1000
COc1cc(-c2cccc(-c3cccc(NC(=O)c4ccccn4)c3F)c2C)cc(F)c1CN1CC(C(=O)O)C1 [Example 1.370] | 10 to 1000
COc1cc(-c2cccc(-c3cccc(NC(=O)c4ccc(C)cn4)c3C)c2C)cc(F)c1CN1CC(C(=O)O)C1 [Example 1.371] | < 10
COc1cc(-c2cccc(-c3cccc(NC(=O)c4ccccn4)c3C)c2C)cc(F)c1CN1CCOC[C@@H]1CO [Example 1.372] | 10 to 1000
COc1cc(-c2cccc(-c3cccc(NC(=O)c4ccccn4)c3C)c2C)cc(F)c1CN1CCOC[C@H]1CO [Example 1.373] | 10 to 1000
COc1cc(-c2cccc(-c3cccc(NC(=O)c4ccccn4)c3)c2C)cc(F)c1CN1CC(C(=O)O)C1 [Example 1.375] | 10 to 1000
COc1cc(-c2cccc(-c3cccc(NC(=O)c4ccccn4)c3C)c2C)cc(F)c1CNC(CO)CO [Example 1.376] | 10 to 1000
COc1cc(-c2cccc(-c3cccc(NC(=O)c4ccccn4)c3C)c2C)cc(F)c1CN1CCCC[C@@H]1C(=O)O [Example 1.377] | 1000 to 10000
COc1cc(-c2cccc(-c3cccc(NC(=O)c4ccccn4)c3C)c2C)cc(F)c1CNC(CO)(CO)CO [Example 1.379] | < 10
COc1cc(-c2cccc(-c3cccc(NC(=O)c4ccccn4)c3C)c2C)cc(F)c1CN1CCCC[C@H]1C(=O)O [Example 1.380] | 10 to 1000
COc1cc(-c2cccc(-c3cccc(NC(=O)c4ccccn4)c3C)c2C)cc(F)c1CN1CC(C(=O)O)C1 [Example 1.381] | < 10
COc1cc(-c2cccc(-c3cccc(NC(=O)c4ccccn4)c3C)c2C)cc(F)c1CNCC(=O)O [Example 1.385] | 10 to 1000
COc1cc(-c2cccc(-c3cccc(NC(=O)c4cccc(N)n4)c3C)c2C)cc(F)c1CN [Example 1.386] | 10 to 1000
COc1cc(-c2cccc(-c3cccc(NC(=O)c4ccccn4)c3C)c2C)cc(F)c1CN1CC(O)C1 [Example 1.388] | < 10
